PubChem BioAssay (NCI)
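Interpolation was linear, between the two tested concentrations surrounding the appropriate level; five concentrations were tested over 48 hours in 96-well plates. The concentration for full growth arrest is given as TGI.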

Experiments:
Assay in all cases: inhibition of tumour cell growth, NCI panel, 48 h
SW-620 colon = test system: SW-620 colon
MCF7 breast = test system: MCF7 breast
A498 renal = test system: A498 renal
NCI-H226 lung = test system: NCI-H226 lung
CCRF-CEM leukemia = test system: CCRF-CEM leukemia
LOX IMVI melanoma = test system: LOX IMVI melanoma
ACHN renal = test system: ACHN renal
MDA-N = test system: MDA-N
MDA-MB-231 breast = test system: MDA-MB-231 breast
MDA-MB-435 = test system: MDA-MB-435
UACC-257 melanoma = test system: UACC-257 melanoma
HOP-62 NSCLC = test system: HOP-62 NSCLC
NCI/ADR-RES ovarian = test system: NCI/ADR-RES ovarian
K-562 leukemia = test system: K-562 leukemia
MALME-3M melanoma = test system: MALME-3M melanoma
SR leukemia = test system: SR leukemia

Nc1ncnc2c1ncn2-c1ccc([N+](=O)[O-])cn1
TGI (SW-620 colon): > 100 µM | TGI (MCF7 breast): > 100 µM | TGI (A498 renal): > 100 µM | TGI (NCI-H226 lung): > 100 µM | TGI (CCRF-CEM leukemia): > 100 µM | TGI (LOX IMVI melanoma): > 100 µM | TGI (ACHN renal): > 100 µM | TGI (MDA-N): > 100 µM | TGI (MDA-MB-231 breast): > 100 µM | TGI (MDA-MB-435): > 100 µM | TGI (UACC-257 melanoma): > 100 µM | TGI (HOP-62 NSCLC): > 100 µM | TGI (NCI/ADR-RES ovarian): > 100 µM

CCCCCCSCC/C(C)=N\OC
TGI (SW-620 colon): > 100 µM | TGI (MCF7 breast): > 100 µM | TGI (K-562 leukemia): > 100 µM | TGI (A498 renal): > 100 µM | TGI (NCI-H226 lung): > 100 µM | TGI (CCRF-CEM leukemia): > 100 µM | TGI (LOX IMVI melanoma): > 100 µM | TGI (ACHN renal): > 100 µM | TGI (MDA-N): > 100 µM | TGI (MDA-MB-231 breast): > 100 µM | TGI (MDA-MB-435): > 100 µM | TGI (UACC-257 melanoma): > 100 µM | TGI (MALME-3M melanoma): > 100 µM | TGI (HOP-62 NSCLC): > 100 µM | TGI (NCI/ADR-RES ovarian): > 100 µM

O=C(c1ccccc1)c1ccc2c(c1)nc1n2C(c2c(F)cccc2F)SC1 (stereo not given)
TGI (SW-620 colon): > 100 µM | TGI (MCF7 breast): > 100 µM | TGI (A498 renal): 72.5 µM | TGI (NCI-H226 lung): > 100 µM | TGI (LOX IMVI melanoma): > 100 µM | TGI (ACHN renal): > 100 µM | TGI (MDA-N): 55.1 µM | TGI (MDA-MB-231 breast): > 100 µM | TGI (MDA-MB-435): > 100 µM | TGI (UACC-257 melanoma): > 100 µM | TGI (MALME-3M melanoma): > 100 µM | TGI (HOP-62 NSCLC): > 100 µM | TGI (NCI/ADR-RES ovarian): > 100 µM

CCOC(=O)c1sc2c(c1O)c(=O)n(-c1ccccc1)c(=S)n2-c1ccccc1
TGI (SW-620 colon): > 100 µM | TGI (MCF7 breast): > 100 µM | TGI (K-562 leukemia): > 100 µM | TGI (NCI-H226 lung): > 100 µM | TGI (CCRF-CEM leukemia): > 100 µM | TGI (LOX IMVI melanoma): > 100 µM | TGI (ACHN renal): > 100 µM | TGI (MDA-N): > 100 µM | TGI (MDA-MB-231 breast): > 100 µM | TGI (MDA-MB-435): > 100 µM | TGI (SR leukemia): 46.9 µM | TGI (UACC-257 melanoma): > 100 µM | TGI (MALME-3M melanoma): > 100 µM

C=C1C(=O)O[C@H]2C/C(C)=C/CC[C@]3(C)CCC[C@](C)(CC[C@@H]12)O3
TGI (SW-620 colon): 17.7 µM | TGI (MCF7 breast): 49.4 µM | TGI (K-562 leukemia): 18.8 µM | TGI (NCI-H226 lung): 27.7 µM | TGI (CCRF-CEM leukemia): 3.38 µM | TGI (LOX IMVI melanoma): > 50 µM | TGI (ACHN renal): 17.2 µM | TGI (MDA-N): > 50 µM | TGI (MDA-MB-231 breast): 46.2 µM | TGI (MDA-MB-435): 15.6 µM | TGI (SR leukemia): 22.5 µM | TGI (UACC-257 melanoma): 21.7 µM | TGI (HOP-62 NSCLC): > 50 µM | TGI (NCI/ADR-RES ovarian): 15.8 µM

C[C@@H]1CCC2C(C)(C)C(/C=C\C=O)C3(C)OC213 (stereo not given in full)
TGI (SW-620 colon): > 100 µM | TGI (MCF7 breast): > 100 µM | TGI (K-562 leukemia): > 100 µM | TGI (A498 renal): > 100 µM | TGI (ACHN renal): > 100 µM | TGI (MDA-N): > 100 µM | TGI (MDA-MB-231 breast): > 100 µM | TGI (MDA-MB-435): > 100 µM | TGI (UACC-257 melanoma): > 100 µM | TGI (MALME-3M melanoma): 72.1 µM | TGI (HOP-62 NSCLC): > 100 µM | TGI (NCI/ADR-RES ovarian): > 100 µM

CCO/C(O)=C(/C(=N)N1CCCC1)C(=O)Nc1cccc(Cl)c1
TGI (SW-620 colon): > 100 µM | TGI (MCF7 breast): > 100 µM | TGI (K-562 leukemia): > 100 µM | TGI (A498 renal): > 100 µM | TGI (NCI-H226 lung): > 100 µM | TGI (CCRF-CEM leukemia): > 100 µM | TGI (LOX IMVI melanoma): > 100 µM | TGI (ACHN renal): > 100 µM | TGI (MDA-N): > 100 µM | TGI (MDA-MB-231 breast): > 100 µM | TGI (MDA-MB-435): > 100 µM | TGI (UACC-257 melanoma): > 100 µM | TGI (MALME-3M melanoma): > 100 µM | TGI (HOP-62 NSCLC): > 100 µM | TGI (NCI/ADR-RES ovarian): > 100 µM
